“And” between values parts separate entries of the source, which are not always exact repeats. Equal entries are not always repeated. Where two headings read alike, the source gives them in different places.
Assays:
Haemonchus contortus = system: Haemonchus contortus; set-up: method as in PMID 38486232; details: GHPB screen, WMicroTracker ONE; cited from earlier work
Caenorhabditis elegans [1] = test: Primary screen, infrared-based (WMicroTracker ONE) C. elegans L4 motility assay at 40 µM; format: cell-based, Caenorhabditis elegans (Bristol N2); details: primary screen at 40 µM; for C. elegans Mean motility vs. DMSO control (%): C. elegans L4; for C. elegans NOTES (HIT): hit if motility < 25%
Procedure: (§1) Methods to cultivate C. elegans (Bristol N2) and synchronize growth to the L4 stage were as described. WMicroTracker ONE (Phylumtech, Argentina) detects movement by measuring the scattering of infrared light beams that are projected into each well of a microtiter plate (two 880 nm beams/well in a 96w plate).
(§2) Synchronized C. elegans L4 were detached from agar and collected in M9 buffer. Worms were centrifuged for 1 min at 1,900 g and washed in S medium to decrease the concentration of E. coli OP50 that might interfere with infrared detection. Control and assay compounds (1 µL) in DMSO (Fisher Scientific, Cat# BP231-100) were spotted into each well of a clear, flat-bottomed 96-well polystyrene plate (Fisherbrand, Cat# FB012931). DMSO (1%) was used as the negative control. Approximately 70 L4 in 100 µL S medium were added per well. First pass screens employed 40 µM compound, and motility was measured every 20 min for 24 h in the WMicroTracker ONE reader in which the temperature was 25 ± 1 °C. Motility was normalized relative to the DMSO controls. Hits were defined as compounds that decreased motility to ≤ 25% of that in DMSO control worms.

C. elegans L4 = system: C. elegans L4; set-up: method as in PMID 38486232; details: GHPB screen, WMicroTracker ONE; cited from earlier work
Caenorhabditis elegans [2] = test: Concentration response C. elegans L4 motility assay (WMicroTracker ONE), EC50; format: cell-based, Caenorhabditis elegans (Bristol N2); details: read-out: EC50 (motility)
Procedure: as §1, §2
For potent compounds, concentration response assays (nine concentrations: 0.005 µM to 40 or 100 µM) were conducted to measure the half-maximal effective concentration (EC50). Compounds were serially diluted in DMSO using 96-well, v-bottomed polypropylene dilution plates (ThermoFisher Scientific, Cat#: 249944) and 1 µL aliquots spotted into each well of the assay plates. Motility was measured as described above. Prism GraphPad, Version 8.0 (GraphPad Software, San Diego, CA) was used to calculate EC50 values using a non-linear sigmoidal four parameter logistic curve.

C. elegans = details: read-out: EC50 previously recorded, cited from earlier work
[3] = HEK293 cytotoxicity assay (resazurin); format: cell-based, Human; details: human, HEK293 cell viability after 48 h, read-out: CC50
Procedure: (§3) Potent compounds were also evaluated for cytotoxicity against HEK293 cells. Cells were cultured at 37 °C and 5% in Dulbecco’s Modified Eagle Medium (DMEM; Gibco, Cat#: 11965-092) containing 10% heat-inactivated fetal bovine serum (FBS; Omega Scientific Inc., Cat#: FB02) and 1% penicillin-streptomycin (ThermoFisher Scientific, Cat#: 15140122), and then sub-cultured when 60–80% confluent. Cells were detached with 0.05% trypsin/EDTA (ThermoFisher Scientific, Cat#: 25300054) and centrifuged for 5 min at 1,900 g.
(§4) Screens were performed over 11 compound concentrations (0.00007–40 µM) that had been prepared in DMSO. Aliquots (1 µL) were spotted into each well of a clear-bottomed, 96-well, polystyrene assay plate (Fisher Scientific, Cat#: FB012931). Approximately 20,000 HEK293 cells in 99 µL of the above supplemented DMEM were then added to each well. After 46 h at 37 °C and 5% CO2, 20 µL 0.5 mM resazurin (ThermoFisher Scientific, Cat#: B21187.03) were added and the incubation continued for 2 h at 37 °C [27]. Fluorescence was measured in a 2104 EnVision Multilabel Plate Reader (PerkinElmer) at 560 and 590 nm excitation and emission wavelengths, respectively. Raw data were exported from the EnVision Workstation software (version 1.13.3009.1401; PerkinElmer) into Prism GraphPad, and the half-maximal cytotoxic concentration (CC50) values were calculated using a non-linear regression curve.

HEK293 cells = test: HEK293 cytotoxicity assay (resazurin); format: cell-based, Human
Procedure: as §3, §4

Molecule | hit in screen against exsheathed L3 of Haemonchus contortus (Haemonchus contortus) | C. elegans Mean motility vs. DMSO control (%) (Caenorhabditis elegans [1]) | C. elegans NOTES (HIT) (Caenorhabditis elegans [1]) | hit in screen against C. elegans L4 (C. elegans L4) | further results
CC(F)c1ncnc(NCCc2ccc(OC(F)(F)F)cc2)c1Cl (stereo not shown) [flufenerim] | hit | 0.26% | HIT | hit | EC50 (Caenorhabditis elegans [2]; C. elegans L4, after 12 h): 211 ± 34 nM
ivermectin [reference compound] | – | – | HIT | – | EC50 (C. elegans; after 90 min): 190 ± 10 nM; C. elegans Mean motility vs. DMSO control (%) (Caenorhabditis elegans [1]; listed as MMV672931): 3.37% and 9.96%; EC50 (Caenorhabditis elegans [2]; C. elegans L4, after 1 h): 130 ± 51 nM
CCc1nn(C)c(C(=O)NCc2ccc(Oc3ccc(C)cc3)cc2)c1Cl [tolfenpyrad] | – | 0.26% | HIT | – | EC50 (C. elegans; after 24 h): 200 ± 40 nM; EC50 (Caenorhabditis elegans [2]; Caenorhabditis elegans, C. elegans L4, after 12 h): 950 ± 256 nM; CC50 at 48 h [3]: 33.8 ± 31.4 µM
COc1ccc2c(c1)c(CC(=O)O)c(C)n2C(=O)c1ccc(Cl)cc1 [indomethacin, reference compound] | – | 18.64% | HIT | – | EC50 (Caenorhabditis elegans [2]; Caenorhabditis elegans, C. elegans L4, after 24 h): 23200 ± 14100 nM; cytotoxicity to HEK293 cells (in words) (HEK293 cells; HEK293 cells): not cytotoxic; CC50 at 48 h ([3]; HEK293 cells): > 100 µM
O=C(Nc1ccc(Cl)c(C(F)(F)F)c1)Nc1ccc(Cl)c(C(F)(F)F)c1 [flucofuron] | hit | 20.31% | HIT | hit only against the parasite | EC50 (Caenorhabditis elegans [2]; C. elegans L4, after 24 h): 20600 ± 10700 nM; CC50 (HEK293 cells; HEK293 cell viability after 48 h): 453 ± 331 nM

From paper PMC12502323, “Discovery of small molecules with anthelmintic potential in the Medicines for Malaria Venture’s COVID and Global Health Priority Boxes using an infrared-based assay for Caenorhabditis elegans motility” (BMC Research Notes, 2025)
